The record followed here is patent US6710040B1, “Fluorinated cyclic amides as dipeptidyl peptidase IV inhibitors” (Pfizer Inc., priority 2002, dated 2004).

Structures can show the parent of a compound that is named as a salt.

Regarding `Cl.N[C@H](C(=O)N1CC(F)(F)C1)C1CCCCC1`, the melting point was 220 °C (dec.). For `CCC(C)[C@H](N)C(=O)N1CC(F)(F)C1.Cl` (some centres unmarked), the melting point is 195 °C (dec.). With `CCC(C)[C@H](N)C(=O)N1CCC(F)(F)CC1.Cl` (some centres unmarked) the figure was 190 to 192 °C; with `C[C@H](N)C(=O)N1CC(F)(F)C(F)(F)C1.Cl`, more than 250 °C. Next, `CC[C@H](C)[C@H](N)C(=O)N1CC(F)C1` (as salt: hydrochloride) [Example 2, (2S,3S)-2-Amino-1-(3-fluoro-azetidin-1-yl)-3-methyl-pentan-1-one]: 208 to 210 °C; `N[C@H](C(=O)N1CC(F)(F)C(F)(F)C1)C1CCCCC1` (as salt: hydrochloride) [Example 3, (S)-2-Amino-2-cyclohexyl-1-(3,3,4,4-tetrafluoro-pyrrolidin-1-yl)-ethanone]: 278 °C. Next, `CC[C@@H](C)[C@H](N)C(=O)N1CC(F)(F)C(F)(F)C1` (as salt: hydrochloride) [Example 4, (2S,3R)-2-Amino-3-methyl-1-(3,3,4,4-tetrafluoro-pyrrolidin-1-yl)-pentan-1-one]: more than 250 °C. `N[C@H](C(=O)N1CC(F)C1)C1CCCCC1` (as salt: hydrochloride) [Example 5, (S)-2-Amino-2-cyclohexyl-1-(3-fluoro-azetidin-1-yl)-ethanone] had a melting point of 238 to 240 °C. Compound `CC(C)[C@H](N)C(=O)N1CC(F)(F)C(F)(F)C1` (as salt: hydrochloride) [Example 6, (S)-2-Amino-3-methyl-1-(3,3,4,4-tetrafluoro-pyrrolidin-1-yl)-butan-1-one] showed a melting point of 234 to 238 °C.

Regarding `CC[C@@H](C)[C@H](N)C(=O)N1CCC(F)(F)C1` [Example 7, (2S,3R)-2-Amino-1-(3,3-difluoro-pyrrolidin-1-yl)-3-methyl-pentan-1-one], the melting point is 196 to 198 °C. Consider `CC[C@H](C)[C@H](N)C(=O)N1CCC(F)(F)C1` [Example 8, (2S,3S)-2-Amino-1-(3,3-difluoro-pyrrolidin-1-yl)-3-methyl-pentan-1-one], for which the melting point was in the range of 195 to 198 °C.
